Experimental data: paper PMC10113214 (Scientific Reports, 2023)

Experiments:
[1] = Circular dichroism, conformation and thermal stability of β-sheet; format: physicochemical; conditions: CD
Procedure: The molar ellipticity of peptides were registered on a Jasco J-815 spectrometer (JASCO, Easton, MD, USA). Solutions of peptide hybrids were prepared in water solution (10 mg/ml), incubated at 37 °C for 4 h and then diluted to a final concentration of 0.20 mg/ml. CD spectra measurements were performed at 25 °C, 30 °C, 35 °C, 40 °C, 45 °C, 50 °C, 55 °C and 60 °C, at 190–260 nm wavelength and at a scan speed of […]. The background of the solvent was subtracted. The results are presented as the relationship of mean residue molar ellipticity (MRME) [deg × cm^2 × dmol^−1] to wavelength [nm]. Measurements were performed in triplicate. In order to determine the peptides’ denaturation temperatures, the molar ellipticity rotatory angle at a fixed wavelength of 196 nm, [θ]196, was measured as a function of temperature (max 100 °C). CD temperature measurements were carried out up to a temperature of 100 °C. Above this temperature, the cure was extrapolated with GraphPad Prism 8 software using the 4PL curve fit function. The denaturation temperature was determined as the temperature at which the change in ellipticity (θ) was half complete.

[2] = Rheology of hydrogels; format: physicochemical; conditions: 1% hydrogel, 37 °C
Procedure: Rheological parameters of the hydrogels were identified using an MCR 302 rheometer (Anton Paar GmbH, Graz, Austria). The rheometer was equipped with a CP50-1 stainless steel cone-and-plate system of 50 mm diameter, 1° cone angle and 50 µm cone truncation and a Peltier controlled temperature unit. An aliquot of 900 µL of 1% hydrogel was applied to a plate cone. The linear viscoelastic (LVE) region was determined through an amplitude sweeps: shear strain (0.01–100% at 6 rad s^−1) and shear stress (0.001–10 Pa at 6.28 rad s^−1). Frequency sweep were measured from 0.01 to 100 rad s^−1 at 2.5% strain. The frequency dependence of the storage modulus (G’) and loss modulus (G”) of the hydrogels were measured at 37 °C. All experiments were carried out in triplicate and reported as the mean of three repeats.

[3] = tested on: 46BR.1N fibroblasts; assay: LDH cytotoxicity assay, 46BR.1N; format: cell-based, human; conditions: 150 µg/ml, 48 h, 3 independent experiments, n = 12
Procedure: Human HaCaT keratinocytes (DKFZ, Heidelberg, Germany)[47],[48], the human dermal fibroblast 46BR.1N cell line (ECACC, Sigma Aldrich Co.) and human primary dermal fibroblasts used in this study were routinely cultured in culture flasks (growth surface area: 25 cm^2) in DMEM-HG medium supplemented with 10% fetal bovine serum, 100 U/mL penicillin and […] streptomycin under standard conditions.
Briefly, the HaCaT and 46BR.1N cells were seeded in 96-well plates at a density of 5000 per well. Cell stimulation with RADA derivatives was performed using a protocol described before[49],[50]. Both assays were performed according to the manufacturers’ instructions (XTT- Roche, Cat. No. 11465015001; LDH- Takara, Cat. No. MK401).

[4] = tested on: full-thickness excisional dorsal skin wounds; assay: Skin wound healing model in mice; format: in vivo, BALB/c mice
Procedure: Eight to ten-week-old BALB/c female mice were used for these experiments. All experimental procedures were approved by the Local Ethics Committee for Animal Experimentation in Bydgoszcz, Poland (Approval No. 49/2016). The study was conducted in compliance with the ARRIVE gudidelines. All animal handling methods were carried out in accordance with European Union Commission Recommendation of 18 June 2007 on guidelines for the accommodation and care of animals used for experimental and other scientific purposes. Before experiments, mice were randomized and divided into groups comprising six individuals. The mice were anaesthetized with inhaled 2–5% isoflurane. The skin on the dorsum was shaved and disinfected. After the skin was folded and raised cranially and caudally along the spine, the mouse was placed in a lateral position, and the folded skin was pierced with a 6.0 mm biopsy punch to make two through-and-through symmetrical wounds. Next, 10 µL of peptide hybrid hydrogel was applied onto each wound. Every gel was prepared in sterile conditions in biological safety cabinet, using sterile water to final concentration of 10 mg/ml (1%). Then the gels were incubated for 24 h allowing it to assemble. Control mice were treated with RADA16-I. The wounds were covered with a transparent Tegaderm TM dressing to protect the wound from outer environment of the cage and other animals. It was fastened with an adhesive plaster wrapped around the animal’s torso. The peptide hybrids were applied daily to the wounds for five consecutive days. The dressings were replaced daily in the first five days of the experiment and every second day until the end of the second week of the experiment. To measure the wound areas the wounds were photographed with a ruler placed next to the injury site. Wound areas were calculated using the computer-assisted image analysis program ImageJ[51].

[5] = tested on: dorsal skin wounds; assay: Histological evaluation of skin samples; format: in vivo, BALB/c mice; conditions: Masson’s trichrome, versus RADA16-I group, Mann–Whitney U test
From the text: Mice were sacrificed on day 18 post-injury. In addition, for investigation of early wound healing, 1 mouse from each group was sacrificed on day 4 post-injury. The skin samples were collected and stored in formalin. Skin samples embedded in paraffin were cut into 5 µm sections following staining with Masson’s trichrome (green: collagen, dermis; grey or dark grey: cell nuclei, epidermis, sebaceous glands; dark red: keratinized epidermis, muscle, hair; light red: red blood cells). Image acquisitions were made with a Leica DM IL microscope. To evaluate the collagen density in dorsal skin wounds, we employed the method of colour deconvolution described by Ruifrok and Johnston[52]. Using the ImageJ software with a colour deconvolution plug-in[53], we analyzed between 7 and 9 images of dorsal skin samples stained with Masson’ trichrome, representing 2–3 mice per group. The results are presented as mean relative collagen density.

SMILES: CC(=O)N[C@@H](CCCNC(=N)N)C(=O)N[C@@H](C)C(=O)N[C@@H](CC(=O)O)C(=O)N[C@@H](C)C(=O)N[C@@H](CCCNC(=N)N)C(=O)N[C@@H](C)C(=O)N[C@@H](CC(=O)O)C(=O)N[C@@H](C)C(=O)N[C@@H](CCCNC(=N)N)C(=O)N[C@@H](C)C(=O)N[C@@H](CC(=O)O)C(=O)N[C@@H](C)C(=O)N[C@@H](CCCNC(=N)N)C(=O)N[C@@H](C)C(=O)N[C@@H](CC(=O)O)C(=O)N[C@@H](C)C(=O)NCC(=O)NCC(=O)NCC(=O)N[C@@H](C)C(=O)N[C@@H](C)C(=O)N1CCC[C@H]1C(=O)N[C@H](C(=O)NCC(=O)NCC(=O)NCC(=O)N[C@@H](CCCCN)C(=O)NCC(=O)N[C@@H](Cc1c[nH]cn1)C(=O)N[C@@H](CCCCN)C(N)=O)C(C)C [RADA-KGHK, Ac-(Arg-Ala-Asp-Ala)4-Gly-Gly-Gly-Ala-Ala-Pro-Val-Gly-Gly-Gly-Lys-Gly-His-Lys-NH2]
- temperature of first disruption of the β-sheets ([1]; [θ]196 nm as function of temperature 4–100 °C, gel 10 mg/ml in water, 37 °C 4 h, diluted to 0.20 mg/ml, decrease of molar ellipticity): ~61 °C
- transition temperature (half β-conformation, half disordered) ([1]; [θ]196 nm vs temperature, 0.20 mg/ml in water, above 100 °C curve extrapolated, 4PL fit): about 92 °C
- magnitude of G’ compared with other gels ([2]; cone-plate, frequency sweep, mean of three repeats): around one-tenth of these values
- shear strain above which the gel behaves like a liquid (G” > G’) ([2]; strain sweep, ω = 6.28 rad/s): above 25%
- cytotoxicity (LDH), slight effect [3]: ca. 15%
- wound closure on day 7 ([4]; BALB/c female mice, 6.0 mm punch dorsal wounds, 10 µL 1% hydrogel topically daily for five days, n = 6, SD): 44.4 ± 4.9%
- wound healing compared to RADA16-I ([4]; BALB/c mice, 1% hydrogel topically, day 2 up to day 14): Accelerated wound healing
- epithelium (membrane-like structure) thickness on day 4 post-injury [5]: significantly thicker epithelium
